Measurements taken from US20070202054A1, “Inhalant Formulation Containing Sulfoalkyl Ether Cyclodextrin and Corticosteroid” (priority 2003, published 2007).
One block for each compound: values may come before it.

Legend:
[1] = type: physicochemical
Experimental: The phase solubility binding curve for Salmeterol xinafoate and budesonide was determined as described herein, and the approximate equilibrium binding constant (Ki) of each with CAPTISOL was determined. […] The molar ratio of CAPTISOL to Salmeterol xinafoate at saturated solubility was about 3.2 under the test conditions used. Their may be a reduction in the amount of budesonide solubilized by CAPTISOL in the presence of Salmeterol xinafoate; however, clear aqueous liquid solution formulations comprising therapeutically effective amounts of budesonide and Salmeterol xinafoate were prepared.

[2] = human, in vivo; cited from earlier work
red blood cells = conditions: concentrations typically used to solubilize pharmaceutical formulations; cited from earlier work
[3] = Density of CAPTISOL solutions (pycnometer); type: physicochemical; conditions: 25° C.
Experimental: The concentration of SAE-CD in solution can be expressed on a weight to weight or weight to volume basis; however, these two units are interconvertible. When a known weight of cyclodextrin is dissolved in a known weight of water, the % w/w cyclodextrin concentration is determined by dividing the cyclodextrin weight in grams by the total weight (cyclodextrin+water weight) in like units and multiplying by 100. When a known weight of cyclodextrin is dissolved to a known total volume, the % w/v cyclodextrin concentration is determined by dividing the cyclodextrin weight in grams by the total volume in milliliters and multiplying by 100. The correlation between the two cyclodextrin concentration percentages was experimentally determined by preparing various % w/w cyclodextrin solutions and measuring the density of each with a pycnometer at 25° C.

[4] = Viscosity of SAE-CD solutions (cone and plate viscometer); type: physicochemical; conditions: 25 C.
Experimental: The performance of an inhalable solution of the invention in a nebulizer may depend upon the viscosity of the solution in its reservoir, the nebulization solution. Viscosity of the inhalable composition can have an impact on percentage of nebulization composition emitted from a nebulizer, output rate of nebulized corticosteroid and droplet size distribution.
The viscosity of aqueous solutions containing SAE-CD were measured using a cone and plate viscometer.
A Brookfield Programmable DV-III+ Rheometer, CPE-40 cone and CPE 40Y plate (Brookfield Engineering Laboratories, Middleboro, Mass.) was used to make measurements on 0.5 ml samples at 1, 2, 3, 5 and 10 rpm. Samples were sheered for approximately 5 revolutions prior to each measurement. This allowed accurate rheological characterization of the samples. The temperature of all samples was equilibrated to 25±1 degree centigrade using a double wall viscometer cone supplied with water from an electronically controlled thermostatic circulating water bath (Model, 8001, Fisher Scientific, Pittsburgh, Pa.). The viscometer was calibrated using 5 and 50 centipoise using silicon oil calibration standards. Viscosity measurements were made at 5 or more rotation speeds to look for sheer thinning behavior (viscosities that decrease as the rate of sheer increases). Higher rotation speeds result in increased rates of sheer.

- approximate equilibrium binding constant (Ki) with CAPTISOL [1]: ~600
Compound: CCCC1O[C@@H]2C[C@H]3[C@@H]4CCC5=CC(=O)C=C[C@]5(C)[C@H]4[C@@H](O)C[C@]3(C)[C@]2(C(=O)CO)O1 (stereo partly drawn) [Budesonide, (R,S)-11β,16α,17,21-tetrahydroxypregna-1,4-diene-3,20-dione cyclic 16,17-acetal with butyraldehyde]

- approximate equilibrium binding constant (Ki) with CAPTISOL [1]: approximately 3,500
- molar ratio of CAPTISOL to drug at saturated solubility [1]: about 3.2
Compound: OCc1cc(C(O)CNCCCCCCOCCCCc2ccccc2)ccc1O (centres unmarked) [Salmeterol xinafoate]

Compound: CCNC(=O)[C@@H]1CCCN1C(=O)[C@H](CCCNC(=N)N)NC(=O)[C@H](CC(C)C)NC(=O)[C@@H](CC(C)C)NC(=O)[C@H](Cc1ccc(O)cc1)NC(=O)[C@H](CO)NC(=O)[C@H](Cc1c[nH]c2ccccc12)NC(=O)[C@H](Cc1c[nH]cn1)NC(=O)[C@@H]1CCC(=O)N1 [leuprolide acetate]
- mean bioavailability [2]: 6.6%

- Density ([3]; Captisol 8.5 % w/w): 1.041 g/mL
- Density ([3]; Captisol 29.8 % w/w): 1.149 g/mL
- Density ([3]; Captisol 39.7 % w/w): 1.202 g/mL
- Density ([3]; Captisol 49.4 % w/w): 1.259 g/mL
- Density ([3]; Captisol 59.4 % w/w): 1.320 g/mL
- Density ([3]; Captisol […] w/w): 1.095 g/mL
Compound: Sulfobutyl Ether-β-Cyclodextrin [Captisol]
- hemolytic behavior (red blood cells): essentially no hemolytic behavior
- Viscosity ([4]; Captisol 8.5 % w/w): 1.75 Cp
- Viscosity ([4]; Captisol 29.8 % w/w): 5.91 Cp
- Viscosity ([4]; Captisol 39.7 % w/w): 17.0 Cp
- Viscosity ([4]; Captisol 49.4 % w/w): 51.9 Cp
- Viscosity ([4]; Captisol 59.4 % w/w): 527.0 Cp
- Viscosity ([4]; Captisol […] w/w): 2.78 Cp
